Measurements reported in the OligoGym collection.
“And” between values parts separate entries of the source, which are not always exact repeats. Equal values may be shown once. After the bases stand the sugars from the 5' end (letter, count) and the backbone: PS all phosphorothioate, else s phosphorothioate and o phosphodiester by linkage. Methylation of C is not given here. e = 2'-O-(2-methoxyethyl) (MOE); k = constrained ethyl (cEt); d = 2'-deoxy (DNA)

Key:
SOD1 = conditions: ASO
MALAT1 = conditions: ASO, A431, 0.005 µM

## AAACTATACAAATCTTC (sugars e3 k2 d7 k2 e3, PS)
SOD1; HepG2, 3 µM
  target mRNA inhibition: 26%

## AAATCTTCCAAGTGATC (sugars e2 k2 d9 k2 e2, PS)
SOD1; HepG2, 5 µM
  target mRNA inhibition: 48%

## AAATTCTGACAAGTTTA (sugars e3 k2 d7 k2 e3, PS)
SOD1; HepG2, 3 µM
  target mRNA inhibition: 21%

## AACATGGAATCCATGCA (sugars e3 k2 d7 k2 e3, PS)
SOD1; HepG2, 3 µM
  target mRNA inhibition: 10%

## AAGTCTCCAACATGCCTCTC (sugars e5 d10 e5, PS)
SOD1; HepG2, 5 µM
  target mRNA inhibition: 20% and 6%

## AAGTGCCATACAGGGTT (sugars e2 k2 d8 k2 e3, PS)
SOD1; HepG2, 5 µM
  target mRNA inhibition: 15%

## AATACCCATCTGTGATT (sugars e3 k2 d7 k2 e3, PS)
SOD1; HepG2, 3 µM
  target mRNA inhibition: 7%

## AATCAGTTTCTCACTAC (sugars e2 k2 d8 k2 e3, PS)
SOD1; HepG2, 5 µM
  target mRNA inhibition: 34%

## AATCCATGCAGGCCTTC (sugars e3 k2 d7 k2 e3, PS)
SOD1; HepG2, 3 µM
  target mRNA inhibition: 13%

## AATCTTCCAAGTGATCA (sugars e3 k2 d7 k2 e3, PS)
SOD1; HepG2, 3 µM
  target mRNA inhibition: 23%

## AATGTTTATCAGGATA (sugars ekddddddddekekee, linkages s1 o1 s8 o3 s2)
SOD1; A431, 0.12 µM
  target mRNA inhibition: 10%
SOD1; A431, 0.6 µM
  target mRNA inhibition: 30%
SOD1; A431, 3 µM
  target mRNA inhibition: 51%
SOD1; A431, 15 µM
  target mRNA inhibition: 72%

## AATGTTTATCAGGATAC (sugars e2 k2 d8 k2 e3, PS)
SOD1; HepG2, 0.1875 µM
  target mRNA inhibition: 51%
SOD1; HepG2, 0.75 µM
  target mRNA inhibition: 79%
SOD1; HepG2, 3 µM
  target mRNA inhibition: 92%
SOD1; HepG2, 4 µM
  target mRNA inhibition: 89%
SOD1; HepG2, 12 µM
  target mRNA inhibition: 96%

## AATGTTTATCAGGATAC (sugars e2 k2 d9 k2 e2, PS)
SOD1; HepG2, 0.1875 µM
  target mRNA inhibition: 43%
SOD1; HepG2, 0.75 µM
  target mRNA inhibition: 75%
SOD1; HepG2, 3 µM
  target mRNA inhibition: 91%
SOD1; HepG2, 4 µM
  target mRNA inhibition: 90%
SOD1; HepG2, 12 µM
  target mRNA inhibition: 97%

## AATGTTTATCAGGATACATT (sugars e5 d10 e5, PS)
SOD1; HepG2, 5 µM
  target mRNA inhibition: 54%

## AATGTTTATTGGGCGAT (sugars e2 k2 d8 k2 e3, PS)
SOD1; HepG2, 4 µM
  target mRNA inhibition: 61%

## AATGTTTATTGGGCGAT (sugars e2 k2 d9 k2 e2, PS)
SOD1; HepG2, 4 µM
  target mRNA inhibition: 64%

## AATTACACCACAAGCCA (sugars e2 k2 d9 k2 e2, PS)
SOD1; HepG2, 4 µM
  target mRNA inhibition: 56%

## ACAAGTTTAATACCCAT (sugars e2 k2 d8 k2 e3, PS)
SOD1; HepG2, 5 µM
  target mRNA inhibition: 58%

## ACACCACAAGCCAAACG (sugars e2 k2 d8 k2 e3, PS)
SOD1; HepG2, 4 µM
  target mRNA inhibition: 27%

## ACACCACAAGCCAAACG (sugars e2 k2 d9 k2 e2, PS)
SOD1; HepG2, 4 µM
  target mRNA inhibition: 45%

## ACACTTTTAAGATTACAGTG (sugars e5 d10 e5, PS)
SOD1; HepG2, 5 µM
  target mRNA inhibition: 15%

## ACAGCTAGCAGGATAAC (sugars e3 k2 d7 k2 e3, PS)
SOD1; HepG2, 3 µM
  target mRNA inhibition: 20%

## ACAGGGTTTTTATTCAC (sugars e2 k2 d9 k2 e2, PS)
SOD1; HepG2, 5 µM
  target mRNA inhibition: 47%

## ACAGTGTTTAATGTTT (sugars kekeddddddddekek, linkages s1 o3 s8 o1 s2)
SOD1; A431, 0.12 µM
  target mRNA inhibition: 0%
SOD1; A431, 0.6 µM
  target mRNA inhibition: 0%
SOD1; A431, 3 µM
  target mRNA inhibition: 0%
SOD1; A431, 15 µM
  target mRNA inhibition: 6%
SOD1; HepG2, 0.222 µM
  target mRNA inhibition: 55%
SOD1; HepG2, 0.667 µM
  target mRNA inhibition: 68%
SOD1; HepG2, 2 µM
  target mRNA inhibition: 78%
SOD1; HepG2, 6 µM
  target mRNA inhibition: 88%

## ACAGTGTTTAATGTTTA (sugars e2 k2 d8 k2 e3, linkages s1 o2 s9 o2 s2)
SOD1; A431, 0.12 µM
  target mRNA inhibition: 17%
SOD1; A431, 0.6 µM
  target mRNA inhibition: 8%
SOD1; A431, 3 µM
  target mRNA inhibition: 26%
SOD1; A431, 15 µM
  target mRNA inhibition: 37%
SOD1; HepG2, 0.222 µM
  target mRNA inhibition: 61%
SOD1; HepG2, 0.667 µM
  target mRNA inhibition: 73%
SOD1; HepG2, 2 µM
  target mRNA inhibition: 91%
SOD1; HepG2, 6 µM
  target mRNA inhibition: 88%

## ACATCCAAGGGAATGTT (sugars e3 k2 d7 k2 e3, PS)
SOD1; HepG2, 3 µM
  target mRNA inhibition: 30%

## ACATTTCTACAGCTAG (sugars ekddddddddekekee, linkages s1 o1 s8 o3 s2)
SOD1; A431, 0.12 µM
  target mRNA inhibition: 1%
SOD1; A431, 0.6 µM
  target mRNA inhibition: 27%
SOD1; A431, 3 µM
  target mRNA inhibition: 32%
SOD1; A431, 15 µM
  target mRNA inhibition: 47%

## ACCACAAGCCAAACGACTTC (sugars e5 d10 e5, PS)
SOD1; HepG2, 5 µM
  target mRNA inhibition: 28%

## TGATCATAATCTCCCA (sugars k3 d10 k3, PS)
MALAT1
  target mRNA inhibition: 43%

## TGCACTAAAGATCACT (sugars k3 d10 k3, PS)
MALAT1
  target mRNA inhibition: 37%

## TGCCAAGCCAAGCCGC (sugars k3 d10 k3, PS)
MALAT1
  target mRNA inhibition: 13%

## TGCCTTTACTTATCAA (sugars k3 d10 k3, PS)
MALAT1
  target mRNA inhibition: 26%

## TGCTCCTCAGTCCTAG (sugars k3 d10 k3, PS)
MALAT1
  target mRNA inhibition: 26%
